≈ marks a conversion by molar mass, not a printed value.
What was measured:
[1] = test system: M. tuberculosis ATCC 27294; assay: Antitubercular broth microdilution MIC; type: cell-based; settings: Mycobacterium tuberculosis; M. tuberculosis ATCC 27294 (H37Rv); read-out: Minimum inhibitory concentration (MIC)
[2] = Hemolytic activity, spectrophotometric; type: cell-based, human; settings: human, human red blood cells (huRBC), 5% hematocrit, 200 μg/mL, 37 °C
CCRF-CEM = assay: cells; settings: Homo sapiens, 48 h; for CC50: read-out: LC50
HL-60(TB) = assay: cells; settings: Homo sapiens, HL-60, 48 h; for CC50: read-out: LC50
K-562 = assay: cells; settings: Homo sapiens, K562, 48 h; for GI50: K-562, 48 h; for CC50: read-out: LC50
NCI-H460 = assay: cells; settings: Homo sapiens, NCI-H460, 48 h; for CC50: read-out: LC50
NCI-H522 = assay: cells; settings: Homo sapiens, NCI-H522, 48 h; for CC50: read-out: LC50
KM12 = assay: cells; settings: Homo sapiens, KM12, 48 h; for CC50: read-out: LC50
SW-620 = assay: cells; settings: Homo sapiens, SW-620, 48 h; for CC50: read-out: LC50
MALME-3M = assay: cells; settings: Homo sapiens, 48 h; for CC50: read-out: LC50
MDA-MB-435 = assay: cells; settings: Homo sapiens, MDA-MB-435, 48 h; for CC50: read-out: LC50
SK-MEL-2 = assay: cells; settings: Homo sapiens, SK-MEL-2, 48 h; for CC50: read-out: LC50
SK-MEL-28 = assay: cells; settings: Homo sapiens, SK-MEL-28, 48 h; for CC50: read-out: LC50
IGROV1 = assay: cells; settings: Homo sapiens, IGROV-1, 48 h; for CC50: read-out: LC50
OVCAR-4 = assay: cells; settings: Homo sapiens, OVCAR-4, 48 h; for CC50: read-out: LC50
OVCAR-5 = assay: cells; settings: Homo sapiens, OVCAR-5, 48 h; for CC50: read-out: LC50
OVCAR-8 = assay: cells; settings: Homo sapiens, OVCAR-8, 48 h; for CC50: read-out: LC50
NCI/ADR-RES = assay: cells; settings: Homo sapiens, 48 h; for CC50: read-out: LC50
SK-OV-3 = assay: cells; settings: Homo sapiens, SK-OV-3, 48 h; for CC50: read-out: LC50
CAKI-1 = assay: cells; settings: Homo sapiens, CAKI-1, 48 h; for CC50: read-out: LC50
SN12C = assay: cells; settings: Homo sapiens, 48 h; for CC50: read-out: LC50
TK-10 = assay: cells; settings: Homo sapiens, TK-10, 48 h; for CC50: read-out: LC50
DU-145 = assay: cells; settings: Homo sapiens, DU-145, 48 h; for CC50: read-out: LC50
MCF7 = assay: cells; settings: Homo sapiens, MCF7, 48 h; for CC50: read-out: LC50
T-47D = assay: cells; settings: Homo sapiens, T47D, 48 h; for CC50: read-out: LC50

## CN(C)c1nc(NCCNS(=O)(=O)c2ccc(C(=O)/C=C/c3ccc(F)cc3)cc2)nc(Nc2ccc(F)cc2)n1 [24f]
[1]
  MIC: 25 µg/mL (≈ 43.1 µM)
[2]
  hemolysis at 24 h, 200 µg/mL: 9.9%
CCRF-CEM
  GI50: 3.42 µM
  CC50: > 100 µM
HL-60(TB)
  GI50: 2.04 µM
  CC50: 6.34 µM
K-562
  GI50: 2.42 µM
  CC50: 6.79 µM
NCI-H460
  GI50: 2.45 µM
  CC50: 6.93 µM
NCI-H522
  GI50: 2.81 µM
  CC50: 8.9 µM
KM12
  GI50: 2 µM
  CC50: 4.41 µM
SW-620
  GI50: 1.9 µM
  CC50: 4.02 µM
MALME-3M
  GI50: 3.42 µM
  CC50: 12.4 µM
MDA-MB-435
  GI50: 2.32 µM
  CC50: 5.69 µM
SK-MEL-2
  GI50: 2.77 µM
  CC50: 8.31 µM
SK-MEL-28
  GI50: 3.6 µM
  CC50: 13.7 µM
IGROV1
  GI50: 4.27 µM
  CC50: 15 µM
OVCAR-4
  GI50: 3.68 µM
  CC50: 15.6 µM
OVCAR-5
  GI50: 3.39 µM
  CC50: 15 µM
OVCAR-8
  GI50: 3.42 µM
  CC50: 13.9 µM
NCI/ADR-RES
  GI50: 3.25 µM
  CC50: 11.6 µM
SK-OV-3
  GI50: 8.23 µM
  CC50: 21.6 µM
CAKI-1
  GI50: 3.01 µM
  CC50: 12.7 µM
SN12C
  GI50: 1.7 µM
  CC50: 3.36 µM
TK-10
  GI50: 4.62 µM
  CC50: 16.6 µM
DU-145
  GI50: 3.94 µM
  CC50: 14 µM
MCF7
  GI50: 1.8 µM
  CC50: 3.46 µM
T-47D
  GI50: 3.02 µM
  CC50: 11.7 µM

## CN(C)c1nc(NCCNS(=O)(=O)c2ccc(C(=O)/C=C/c3ccc(C(F)(F)F)cc3)cc2)nc(Nc2ccc(F)cc2)n1 [24g]
[1]
  MIC: 50 µg/mL (≈ 79.4 µM)
[2]
  hemolysis at 24 h, 200 µg/mL: 0.8%
CCRF-CEM
  GI50: 3.79 µM
  CC50: > 100 µM
HL-60(TB)
  GI50: 3.81 µM
  CC50: 30 µM
K-562
  GI50: 2.98 µM
  CC50: 30.4 µM
NCI-H460
  GI50: 4.09 µM
  CC50: 14.9 µM
NCI-H522
  GI50: 11.2 µM
  CC50: 24.7 µM
KM12
  GI50: 2.38 µM
  CC50: 6 µM
SW-620
  GI50: 2.24 µM
  CC50: 5.06 µM
MALME-3M
  GI50: 14.2 µM
  CC50: 27.5 µM
MDA-MB-435
  GI50: 2.86 µM
  CC50: 8.49 µM
SK-MEL-2
  GI50: 9.45 µM
  CC50: 22.3 µM
SK-MEL-28
  GI50: 10.4 µM
  CC50: 22.2 µM
IGROV1
  GI50: 12.3 µM
  CC50: 24.9 µM
OVCAR-4
  GI50: 8.78 µM
  CC50: 23.1 µM
OVCAR-5
  GI50: 12 µM
  CC50: 24.4 µM
OVCAR-8
  GI50: 12.3 µM
  CC50: 30.6 µM
NCI/ADR-RES
  GI50: 10.7 µM
  CC50: 23.7 µM
SK-OV-3
  GI50: 13.7 µM
  CC50: 27.8 µM
CAKI-1
  GI50: 6.46 µM
  CC50: 19.7 µM
SN12C
  GI50: 6.36 µM
  CC50: 19.9 µM
TK-10
  GI50: 17.4 µM
  CC50: 32 µM
DU-145
  GI50: 11.2 µM
  CC50: 24 µM
MCF7
  GI50: 1.7 µM
  CC50: 3.56 µM
T-47D
  GI50: 5.16 µM
  CC50: 19.6 µM
